Assay results reported in publication PMC11012124, “Synthesis of Novel Triazine-Based Chalcones and 8,9-dihydro-7H-pyrimido[4,5-b][1,4]diazepines as Potential Leads in the Search of Anticancer, Antibacterial and Antifungal Agents” (International Journal of Molecular Sciences, 2024).
In brackets after ≈: the same amount, converted by molar mass.

Experiments:
[1] = tested on: SNB-19; assay: cells; conditions: Homo sapiens, SNB-19, 48 h; for CC50: read-out: LC50
[2] = tested on: RPMI-8226; assay: cells; conditions: Homo sapiens, RPMI-8226, 48 h; for CC50: read-out: LC50
[3] = tested on: OVCAR-8; assay: cells; conditions: Homo sapiens, OVCAR-8, 48 h; for CC50: read-out: LC50
[4] = tested on: DU-145; assay: cells; conditions: Homo sapiens, DU-145, 48 h; for CC50: read-out: LC50
[5] = tested on: MCF7; assay: cells; conditions: Homo sapiens, MCF7, 48 h; for CC50: read-out: LC50
[6] = tested on: TK-10; assay: cells; conditions: Homo sapiens, TK-10, 48 h; for CC50: read-out: LC50
[7] = tested on: HL-60(TB); assay: cells; conditions: Homo sapiens, HL-60, 48 h; for CC50: read-out: LC50
[8] = tested on: SN12C; assay: cells; conditions: Homo sapiens, 48 h; for CC50: read-out: LC50
[9] = tested on: BT-549; assay: cells; conditions: Homo sapiens, BT-549, 48 h; for CC50: read-out: LC50
[10] = tested on: MDA-MB-435; assay: cells; conditions: Homo sapiens, MDA-MB-435, 48 h; for CC50: read-out: LC50
[11] = tested on: 60 cancer cell lines; assay: NCI-60 one-dose screen (10 μM); assay type: cell-based; conditions: Homo sapiens; one dose of 10 μM, mean over 60 cancer cell lines; read-out: Mean Growth Percent (MGP)
Description: Additionally, the mean of the growth percentages (MGP) of each compound against all the 60 cancer cell lines is also reported, which is used as one of the selection criteria to continue with tests at five concentration doses.

[12] = tested on: UACC-257; assay: cells; conditions: Homo sapiens, UACC-257, 48 h; for CC50: read-out: LC50
[13] = tested on: SNB-75; assay: cells; conditions: Homo sapiens, SNB-75, 48 h
[14] = tested on: MDA-MB-468; assay: cells; conditions: Homo sapiens, MDA-MB-468, 48 h; for CC50: read-out: LC50
[15] = tested on: A. flavus (ATCC 9170); assay: Antifungal broth microdilution (CLSI); assay type: cell-based; conditions: ATCC9170; Afl: Aspergillus flavus
Description: (§1) Several of the obtained triazine derivatives were evaluated against sensitive fungal species comprising of two yeasts (Candida albicans (ATCC 10231), Cryptococcus neoformans (ATCC 32264)), three dermatophytes (Microsporum gypseum (CCC 115), Trichophyton rubrum (CCC 134-2000), Trichophyton mentagrophytes (CCC 202-2000)), and three Aspergillus fungi ((A. [NT] 26934), A. niger (ATCC 9029), and A. flavus (ATCC 9170)). […] Broth microdilution techniques were performed in 96-well microplates according to the Reference Method for Broth Dilution Antifungal Susceptibility Testing of Yeasts, document M27-A3 [86] and of Filamentous Fungi […]-A8 [87]. […] An inoculum suspension (100 μL) was added to each well (final well volume = 200 μL). One growth control well (containing medium, inoculum, and the same amount of DMSO as used for each compound) and one sterility control well (sample, medium, and sterile water instead of inoculum) were included for each fungus tested. Microtiter plates were incubated in a dark, humid chamber at 30 °C for the time necessary for each fungus. Amphotericin B, Terbinafine, Fluconazole and Itraconazole were used as a positive control. The tests were performed in triplicate.

[16] = tested on: Cryptococcus neoformans (ATCC 32264); assay: Antifungal broth microdilution (CLSI); assay type: cell-based; conditions: ATCC32264; Cn: Cryptococcus neoformans
Description: as §1

[17] = tested on: NCI-H322M; assay: cells; conditions: Homo sapiens, 48 h; for CC50: read-out: LC50
[18] = tested on: SF-539; assay: cells; conditions: Homo sapiens, SF-539, 48 h; for CC50: read-out: LC50, SF-539, 48 h
[19] = tested on: HS 578T; assay: cells; conditions: Homo sapiens, 48 h; for CC50: read-out: LC50
[20] = tested on: M14; assay: cells; conditions: Homo sapiens, M14, 48 h; for CC50: read-out: LC50
[21] = tested on: NCI-H522; assay: cells; conditions: Homo sapiens, NCI-H522, 48 h; for CC50: read-out: LC50
[22] = tested on: NCI/ADR-RES; assay: cells; conditions: Homo sapiens, 48 h
[23] = tested on: SR; assay: cells; conditions: Homo sapiens, 48 h; for CC50: read-out: LC50
[24] = tested on: UACC-62; assay: cells; conditions: Homo sapiens, UACC-62, 48 h; for CC50: read-out: LC50
[25] = tested on: NCI-H226; assay: cells; conditions: Homo sapiens, NCI-H226, 48 h; for CC50: read-out: LC50
[26] = tested on: OVCAR-4; assay: cells; conditions: Homo sapiens, OVCAR-4, 48 h; for CC50: read-out: LC50

Structure (SMILES): COc1cc(/C=C/C(=O)c2cc(OC)c(OC)c(OC)c2)ccc1Oc1nc(Nc2ccc(F)cc2)nc(N(C)C)n1 [21d]
- GI50 [1]: 1.86 µM
- CC50 [1]: 18.5 µM
- GI50 [2]: 751 nM
- CC50 [2]: > 100 µM
- GI50 [3]: 1.55 µM
- CC50 [3]: > 100 µM
- GI50 [4]: 3.99 µM
- CC50 [4]: 67.9 µM
- GI50 [5]: 1060 nM
- CC50 [5]: 67 µM
- GI50 [6]: 2.53 µM
- CC50 [6]: 38.1 µM
- GI50 [7]: 2.21 µM
- CC50 [7]: > 100 µM
- GI50 [8]: 1.23 µM
- CC50 [8]: 6.04 µM
- GI50 [9]: 1.56 µM
- CC50 [9]: 6.56 µM
- GI50 [10]: 1.63 µM
- CC50 [10]: 7.69 µM
- activity at 10 µM [11]: -33.4%
- GI50 [12]: 2.83 µM
- CC50 [12]: > 100 µM
- GI50 [13]: 2540 nM
- CC50 ([13]; read-out: LC50): 81.8 µM
- GI50 [14]: 1.35 µM
- CC50 [14]: 9.11 µM
- MIC [15]: > 250 µg/mL
- MIC [16]: > 250 µg/mL
- GI50 [17]: 2.99 µM
- CC50 [17]: > 100 µM
- GI50 [18]: 1.64 µM
- CC50 [18]: 5.81 µM
- GI50 [19]: 2.39 µM
- CC50 [19]: > 100 µM
- GI50 [20]: 2.83 µM
- CC50 [20]: 32.8 µM
- GI50 [21]: 1.47 µM
- CC50 [21]: 7.11 µM
- GI50 [22]: 1420 nM
- CC50 ([22]; read-out: LC50): 8.08 µM
- GI50 [23]: 700 nM
- CC50 [23]: > 100 µM
- GI50 [24]: 1.41 µM
- CC50 [24]: 6.38 µM
- GI50 [25]: 1.44 µM
- CC50 [25]: 7.24 µM
- GI50 [26]: 2.07 µM
- CC50 [26]: > 100 µM

Structure (SMILES): CN(C)c1nc(NCCNS(=O)(=O)c2ccc(C(=O)/C=C/c3ccc(Cl)cc3)cc2)nc(N2CCOCC2)n1 [23e]
- GI50 [1]: 14.2 µM
- CC50 [1]: 52.1 µM
- GI50 [2]: 2550 nM
- CC50 [2]: > 100 µM
- GI50 [3]: 14.8 µM
- CC50 [3]: 54.5 µM
- GI50 [4]: 17.2 µM
- CC50 [4]: 67.3 µM
- GI50 [5]: 2370 nM
- CC50 [5]: 34.6 µM
- GI50 [6]: 15.8 µM
- CC50 [6]: 54.7 µM
- GI50 [7]: 14.7 µM
- CC50 [7]: > 100 µM
- GI50 [8]: 14.4 µM
- CC50 [8]: 53.8 µM
- GI50 [9]: 15.3 µM
- CC50 [9]: 56 µM
- GI50 [10]: 12.8 µM
- CC50 [10]: 55.3 µM
- activity at 10 µM [11]: 6.74%
- GI50 [12]: 16.2 µM
- CC50 [12]: 55.7 µM
- GI50 [14]: 11 µM
- CC50 [14]: 56 µM
- MIC [15]: > 250 µg/mL
- MIC [16]: 250 µg/mL (≈ 437 µM)
- GI50 [17]: 14.4 µM
- CC50 [17]: 52.4 µM
- GI50 [18]: 14.7 µM
- CC50 [18]: 52.9 µM
- GI50 [19]: 15.8 µM
- CC50 [19]: > 100 µM
- GI50 [20]: 14.1 µM
- CC50 [20]: 56.9 µM
- GI50 [21]: 14 µM
- CC50 [21]: 53.3 µM
- GI50 [23]: 2520 nM
- CC50 [23]: > 100 µM
- GI50 [24]: 11.4 µM
- CC50 [24]: 49.1 µM
- GI50 [25]: 15.7 µM
- CC50 [25]: 73.8 µM
- GI50 [26]: 14.7 µM
- CC50 [26]: 57.2 µM
